For this assay, the target named is T1, acetylcholinesterase (Electrophorus electricus, UniProt O42275).
T1 construct: purchased SIGMA C 2888; host or cells: electric organ of Electrophorus electricus
In words: cholinesterase inhibitory activity: acetylcholinesterase activity by the Ellman method. Particulars: acetylthiocholine iodide substrate, DTNB, phosphate buffer pH 8, 25° C., absorbance at 412 nm; read-out: IC50 ± SD (inhibitory concentration at 50% activity of the enzyme). Type of assay: biochemical.

T1 sequence (O42275 24-633): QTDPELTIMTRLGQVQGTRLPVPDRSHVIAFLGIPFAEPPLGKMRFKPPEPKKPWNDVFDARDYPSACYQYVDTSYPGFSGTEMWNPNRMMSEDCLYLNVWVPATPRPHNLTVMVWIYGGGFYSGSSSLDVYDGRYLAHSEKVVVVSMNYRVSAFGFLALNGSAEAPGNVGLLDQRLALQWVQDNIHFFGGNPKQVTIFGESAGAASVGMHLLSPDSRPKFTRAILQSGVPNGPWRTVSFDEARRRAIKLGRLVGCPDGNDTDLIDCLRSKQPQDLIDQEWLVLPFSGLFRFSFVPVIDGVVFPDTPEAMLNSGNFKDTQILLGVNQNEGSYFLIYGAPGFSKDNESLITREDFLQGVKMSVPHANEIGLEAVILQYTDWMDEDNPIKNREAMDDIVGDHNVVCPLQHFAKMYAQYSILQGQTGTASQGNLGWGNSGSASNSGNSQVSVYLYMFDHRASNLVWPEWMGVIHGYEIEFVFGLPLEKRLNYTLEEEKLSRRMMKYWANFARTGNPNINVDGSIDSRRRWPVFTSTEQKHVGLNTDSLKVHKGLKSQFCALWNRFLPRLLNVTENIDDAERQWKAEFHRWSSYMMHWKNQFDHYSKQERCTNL
Experimental: In order to measure the cholinesterase inhibitory activity of the compounds of the invention, the enzymatic activity of acetylcholinesterase is evaluated by the Ellman method (Biochemical Pharmacology, 1961, Vol. 7 pp 88-95, Ellman et al.).
The principle of the method comprises measuring the rate of thiocholine at the time of hydrolysis of the acetylcholine by the enzyme. The hydrolysis is accompanied by a continuous reaction between thiocholine and 5,5'-dithio-2-nitrobenzoic acid (DTNB) which leads to the formation of the yellow colored 5-thio-2-nitrobenzoate anion. The rate of the formation of the anion is measured by absorbance at 412 nm.
The material used is comprised of a 0.1 M (pH 8) phosphate buffer: Na2 HPO4 /NaH2 PO4, an enzyme: acetylcholinesterase from the electrical organ of the electric ray Electrophorus electricus (SIGMA C 2888) purified on Sephadex resin, a substrate: acetylthiocholine iodide 7.5 mM (21.67 mg/10 ml of phosphate buffer) and a reagant: 5,5'-dithio-2-nitrobenzoic acid (DTNB) 10 mM (39.6mg / 10 ml of phosphate buffer).
Thus 3 ml of phosphate buffer, 100 μl of DTNB, 2 μl enzyme, 3.3 μl of the compound according to the invention, and 200 μl of substrate are mixed at 25° C., subsequently the change of absorbance at 412 nm is measured immediately.

Consider `COc1ccc2c3c1O[C@H]1C[C@@H](O)C=C[C@@]31CC[N+](CCCCCCn1cccc1)=C2` [Example 11, 10-N-demethyl-10-N-(6'pyrrolohexyl)-galanthaminium bromohydrate], for which the IC50 came out at 170 ± 10 nM.
In the case of `COc1ccc2c3c1O[C@H]1C[C@@H](O)C=C[C@@]31CC[N+](C)=C2` [Example 1, galanthaminium methanesulfonate] it was 80 ± 2 nM.

For the origin of these results see patent publication US5958903A, “Galanthamine derivatives, and their pharmaceutical compositions” (priority 1995, dated 1999).
